Measured values as given in patent US9095587B2, “Methods and compositions for improved nerve conduction velocity” (Spinifex Pharmaceuticals Pty Ltd, priority 2010, dated 2015).
Several values for one entry are separate records, joined by “and”; a condition that tells them apart may be missing. Identical values can stand only once. Counter-ions that a name gives are not always drawn. Values belong to the molecule of their own block, whether it stands above or below them.

Legend:
diabetic rats [1] = assay: Sciatic motor nerve conduction velocity in STZ-diabetic rats; assay type: in vivo, rat; settings: for Motor NCV, Mean: group mean of 10 diabetic rats; for Motor NCV, Mean / Motor NCV: last 2 weeks of 8 weeks diabetes; for Motor NCV: individual diabetic rats
Experimental: (§1) Methods: Diabetes was induced in mature (19 week old) male Sprague-Dawley by a single STZ injection (40-45 mg/kg i.p.). The diabetic state was monitored weekly using commercially available test strips for blood (tail vein) and urine glucose levels. Body weight was also monitored daily. The criteria for the diabetic state were: blood glucose>19.9 mM, glycosuria, and no evidence of body weight gain.
(§2) In final experiments, rats were anaesthetized with thiobutabarbital (50-100 mg kg-1 i.p.) The trachea was cannulated for artificial respiration. The level of anaesthesia was monitored by observing any reaction of blood pressure to manipulation, supplementary thiobutabarbital anaesthetic being given as necessary. As described in detail by Cameron et al., (Q. J. Expt Physiol, 74; 917-926, 1989 and Diabetes, 40:532-539, 1991), the sciatic nerve was exposed between the sciatic notch and knee. Bipolar stimulating electrodes were placed close to the nerve at the notch and knee. A concentric bipolar electrode was inserted into tibialis anterior muscle to monitor evoked electromyographic (EMG) activity. Potentials evoked from each stimulating site were averaged 8 times. Motor nerve conduction velocity (NCV) was calculated by dividing the distance between stimulating electrodes by the average latency difference between the onsets of EMG potentials evoked from the 2 sites. Nerve temperature was monitored using a thermocouple probe, and maintained in the range 36-38° C. by radiant heat. Body temperature was also maintained around 37° C. using a heated blanket.
as §1, with “also be” for “also”
as §2, with “necessary. The” for “necessary. As described in detail by Cameron et al., (Q. J. Expt Physiol, 74; 917-926, 1989 and Diabetes, 40:532-539, 1991), the”, “averaged […]” for “averaged 8”, “Motor NCV” for “Motor nerve conduction velocity (NCV)”, “blanket. Sensory NCV was measured for sensory saphenous nerve between groin and mid-calf in a similar fashion, except that direct nerve evoked potentials were recorded at the ankle using a unipolar platinum hook electrode. Reference values for comparison of the NCV data were obtained from nondiabetic control and 8 week diabetic control rats.” for “blanket.”
as §1, with “Diabetes” for “Methods: Diabetes”
In final experiments, rats were anaesthetized with thiobutabarbital (50-100 mg kg-1 i.p.) The trachea was cannulated for artificial respiration. […]

diabetic rats [2] = assay: Saphenous sensory nerve conduction velocity in STZ-diabetic rats; assay type: in vivo, rat; settings: for Sensory NCV, Mean: group mean of 10 diabetic rats; for Sensory NCV, Mean / Sensory NCV: last 2 weeks of 8 weeks diabetes; for Sensory NCV: individual diabetic rats
Experimental: as §1
Sensory NCV was measured for sensory saphenous nerve between groin and mid-calf in a similar fashion, except that direct nerve evoked potentials were recorded at the ankle using a unipolar platinum hook electrode.
as §1, with “also be” for “also”
as §2, with “necessary. The” for “necessary. As described in detail by Cameron et al., (Q. J. Expt Physiol, 74; 917-926, 1989 and Diabetes, 40:532-539, 1991), the”, “averaged […]” for “averaged 8”, “Motor NCV” for “Motor nerve conduction velocity (NCV)”, “blanket. Sensory NCV was measured for sensory saphenous nerve between groin and mid-calf in a similar fashion, except that direct nerve evoked potentials were recorded at the ankle using a unipolar platinum hook electrode. Reference values for comparison of the NCV data were obtained from nondiabetic control and 8 week diabetic control rats.” for “blanket.”
as §1, with “Diabetes” for “Methods: Diabetes”
as §2, with “The” for “As described in detail by Cameron et al., (Q. J. Expt Physiol, 74; 917-926, 1989 and Diabetes, 40:532-539, 1991), the”, “NCV” for “nerve conduction velocity (NCV)”, “blanket. Sensory NCV was measured for sensory saphenous nerve between groin and mid-calf in a similar fashion, except that direct nerve evoked potentials were recorded at the ankle using a unipolar platinum hook electrode. […]” for “blanket.”

[3] = Body weight, blood glucose and general condition of treated diabetic rats; assay type: in vivo, rat; settings: for End weight, Mean: group mean of 10 diabetic rats; for End weight, Mean / End weight: last 2 weeks of 8 weeks diabetes; for End weight: individual diabetic rats
Experimental: as §1
as §1, with “also be” for “also”

diabetic rats [4] = assay: Tactile allodynia, electronic von Frey hair apparatus, diabetic rats; assay type: in vivo, rat
Experimental: as §1, with “Diabetes” for “Methods: Diabetes”
Tactile allodynia thresholds for the foot were measured by an electronic von Frey hair apparatus. Latencies for foot withdrawal reflexes to noxious thermal stimulation were estimated by the Hargreaves plantar test (Hargreaves K, Dubner R, Brown F, Flores C, Joris J. A new and sensitive method for measuring thermal nociception in cutaneous hypeialgesia. Pain 1988; 32: 77-88). All tests were carried out using commercially available equipment (Ugo-Basile, Comerio, Italy). […]
Tactile allodynia was estimated on two separate occasions; once on a day before treatment was initiated, and then on the day immediately following the last day of the treatment period. […] Thus, stimulus intensity tracked the threshold, and a run of 6 near-threshold responses was used to estimate the 50% threshold value using lookup tables (Chaplan S R, Bach F W, Pogrel J W, Chung J M, Yaksh T L. Quantitative assessment of tactile allodynia in the rat paw. J Neurosci Meth 1994; 53: 55-63). […]

diabetic rats [5] = assay: Thermal hyperalgesia, Hargreaves plantar test, diabetic rats; assay type: in vivo, rat
Experimental: as §1, with “Diabetes” for “Methods: Diabetes”
Tactile allodynia thresholds for the foot were measured by an electronic von Frey hair apparatus. Latencies for foot withdrawal reflexes to noxious thermal stimulation were estimated by the Hargreaves plantar test (Hargreaves K, Dubner R, Brown F, Flores C, Joris J. A new and sensitive method for measuring thermal nociception in cutaneous hypeialgesia. Pain 1988; 32: 77-88). All tests were carried out using commercially available equipment (Ugo-Basile, Comerio, Italy). Measurements were made in a constant temperature room at the same time each day, and rats were given a 3-day period for familiarization with handling, the environment, equipment, and experimental procedure.
In a similar way to the assessment of tactile allodynia, thermal sensitivity was also measured on 2 separate occasions, before and after treatment. […] After 30 min acclimatization, a constant power infrared stimulus was focused onto the sole of the foot and the latency for reflex foot withdrawal recorded via a photoelectric monitor. […]

[6] = molecular target: T1, AT1 (h) human recombinant (CHO cells) (Homo sapiens, UniProt P30556); assay: AT1 (h) receptor binding assay; settings: [125I][Sar1, Ile8]-AT II 0.05 nM, 60 min./37° C.; highest tested concentration
T1 construct: expressed in transfected cells; host or cells: CHO cells
T1 sequence (P30556 1-359): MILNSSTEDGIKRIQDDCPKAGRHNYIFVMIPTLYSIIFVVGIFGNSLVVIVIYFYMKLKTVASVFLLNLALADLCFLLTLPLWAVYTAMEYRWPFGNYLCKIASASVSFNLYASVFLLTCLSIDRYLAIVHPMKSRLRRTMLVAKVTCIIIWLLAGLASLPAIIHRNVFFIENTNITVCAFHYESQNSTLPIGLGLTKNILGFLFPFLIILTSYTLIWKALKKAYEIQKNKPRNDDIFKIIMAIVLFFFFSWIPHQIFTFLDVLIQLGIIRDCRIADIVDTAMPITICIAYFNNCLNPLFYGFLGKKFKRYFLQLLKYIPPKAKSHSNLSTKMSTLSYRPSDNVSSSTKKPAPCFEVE
Experimental: (§3) The specific ligand binding to the receptors is defined as the difference between the total binding and the nonspecific binding determined in the presence of an excess of unlabelled ligand. […] The IC50 values (concentration causing a half-maximal inhibition of control specific binding) and Hill coefficients (nH) were determined by non-linear regression analysis of the competition curves using Hill equation curve fitting. The inhibition constants (Ki) were calculated from the Cheng Prusoff equation (Ki=IC50/(1+(L/KD)), where L=concentration of radioligand in the assay, and KD=affinity of the radioligand for the receptor).

[7] = molecular target: AT2 (h) human recombinant (Hela cells) (Homo sapiens, UniProt P50052); settings: competition curve, Hill equation curve fitting
Experimental: as §3

[8] = 1.048 mg/kg daily by oral gavage
[9] = 1.048 mg/kg daily by oral gavage, 28 days
[10] = 0.01048 mg/kg daily by gavage, 0.01048 mg/kg
[11] = 0.0349 mg/kg daily by gavage, 0.0349 mg/kg
[12] = 0.1048 mg/kg daily by gavage, 0.1048 mg/kg
[13] = 1.048 mg/kg daily by gavage, 1.048 mg/kg
[14] = 1.048 mg/kg daily by gavage for 2 weeks
[15] = 1.048 mg/kg by oral gavage, 1 day, before vs after drug

AT2 (h) human recombinant (Hela cells), sequence (P50052 whole entry): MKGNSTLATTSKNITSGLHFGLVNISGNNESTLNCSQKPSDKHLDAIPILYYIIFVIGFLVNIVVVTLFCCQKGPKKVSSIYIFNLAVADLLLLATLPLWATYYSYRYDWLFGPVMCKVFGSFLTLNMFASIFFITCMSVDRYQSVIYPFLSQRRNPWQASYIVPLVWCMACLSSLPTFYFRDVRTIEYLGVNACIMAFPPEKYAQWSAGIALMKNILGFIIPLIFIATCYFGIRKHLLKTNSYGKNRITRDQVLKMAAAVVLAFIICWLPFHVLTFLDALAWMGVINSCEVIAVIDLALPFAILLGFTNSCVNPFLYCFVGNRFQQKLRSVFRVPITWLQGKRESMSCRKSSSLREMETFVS

SMILES: COc1ccc2c(c1OCc1ccccc1)C[C@@H](C(=O)O)N(C(=O)C(c1ccccc1)c1ccccc1)C2 [Compound 1 sodium salt, S-2-(diphenylacetyl)-5-benzyloxy-6-methoxy-1,2,3,4-tetrahydroisoquinoline-3-carboxylic acid]
- treatment duration after which motor NCV was statistically within the nondiabetic range (diabetic rats [1]; [8]): 7 days
- motor NCV, 28-day treatment group versus 14-day data (diabetic rats [1]; [9]): entirely comparable with the previously obtained 14-day data
- ED50 (diabetic rats [1]; Rattus norvegicus, 336 h, oral, daily for 2 weeks, best fit sigmoid curve, read-out: ED50, correction of sciatic motor NCV deficit): 0.044 mg/kg
- Motor NCV, Mean (diabetic rats [1]; 0.01048 mg/kg daily by gavage): 53.25 m/s
- Motor NCV, Mean (diabetic rats [1]; 0.0349 mg/kg daily by gavage): 56.68 m/s
- Motor NCV, Mean (diabetic rats [1]; 0.1048 mg/kg daily by gavage): 60.51 m/s
- Motor NCV, Mean (diabetic rats [1]; 1.048 mg/kg daily by gavage): 63.72 m/s
- Motor NCV (diabetic rats [1]; [10]): 54.92 m/s and 55.17 m/s and 54.10 m/s and 50.78 m/s and 54.03 m/s and 51.60 m/s and 51.96 m/s and 56.90 m/s and 50.70 m/s and 52.38 m/s
- Motor NCV (diabetic rats [1]; [11]): 56.15 m/s and 57.38 m/s and 56.90 m/s and 57.89 m/s and 59.32 m/s and 56.67 m/s and 53.68 m/s and 58.18 m/s and 54.55 m/s and 56.06 m/s
- Motor NCV (diabetic rats [1]; [12]): 59.13 m/s and 61.48 m/s and 60.00 m/s (2×) and 58.62 m/s and 63.63 m/s and 64.15 m/s and 59.02 m/s and 60.78 m/s and 58.33 m/s
- Motor NCV (diabetic rats [1]; [13]): 62.87 m/s and 62.30 m/s and 62.84 m/s and 62.50 m/s and 63.90 m/s and 62.69 m/s and 64.95 m/s and 61.75 m/s and 69.57 m/s and 63.81 m/s
- diabetic deficit corrected, saphenous sensory NCV (diabetic rats [2]; 1.048 mg/kg daily by gavage for 2 weeks, p<0.001, vs reference groups): 99.1±5.0%
- treatment duration after which sensory NCV was statistically within the nondiabetic range (diabetic rats [2]; [8]): 3 days
- sensory NCV, 28-day treatment group versus 14-day data (diabetic rats [2]; [9]): entirely comparable with the previously obtained 14-day data
- ED50 (diabetic rats [2]; Rattus norvegicus, 336 h, oral, daily for 2 weeks, best fit sigmoid curve, read-out: ED50, correction of saphenous sensory NCV deficit): 0.02 mg/kg
- Sensory NCV, Mean (diabetic rats [2]; 0.01048 mg/kg daily by gavage): 53.93 m/s
- Sensory NCV, Mean (diabetic rats [2]; 0.0349 mg/kg daily by gavage): 57.25 m/s
- Sensory NCV, Mean (diabetic rats [2]; 0.1048 mg/kg daily by gavage): 60.73 m/s
- Sensory NCV, Mean (diabetic rats [2]; 1.048 mg/kg daily by gavage): 61.10 m/s
- Sensory NCV (diabetic rats [2]; [10]): 55.47 m/s and 56.07 m/s and 51.59 m/s and 54.39 m/s and 55.30 m/s and 51.82 m/s and 51.85 m/s and 55.81 m/s and 53.85 m/s and 53.19 m/s
- Sensory NCV (diabetic rats [2]; [11]): 57.43 m/s and 57.94 m/s and 55.60 m/s and 59.95 m/s and 56.00 m/s and 57.50 m/s and 55.93 m/s and 57.73 m/s and 57.72 m/s and 56.72 m/s
- Sensory NCV (diabetic rats [2]; [12]): 61.11 m/s and 62.96 m/s and 61.22 m/s and 56.67 m/s and 63.16 m/s and 62.50 m/s (2×) and 63.04 m/s and 58.33 m/s and 55.83 m/s
- Sensory NCV (diabetic rats [2]; [13]): 62.50 m/s (4×) and 60.63 m/s and 60.41 m/s and 60.71 m/s and 57.57 m/s and 60.98 m/s and 60.74 m/s
- condition of animals at the end of the experimental period [3, 14]: in good condition and behaviourally alert
- condition of animals at the end of the experimental period ([3]; 0.1048, 0.0349 or 0.01048 mg/kg daily by gavage for 2 weeks): in good condition and behaviourally alert
- End weight, Mean ([3]; 0.01048 mg/kg daily by gavage): 372 g
- End weight, Mean ([3]; 0.0349 mg/kg daily by gavage): 357 g
- End weight, Mean ([3]; 0.1048 mg/kg daily by gavage): 369 g
- End weight, Mean ([3]; 1.048 mg/kg daily by gavage): 390 g
- End weight [3, 10]: 374 g and 436 g and 346 g and 438 g and 349 g and 329 g and 364 g and 385 g and 386 g and 312 g
- End weight [3, 11]: 369 g and 427 g and 400 g and 396 g and 332 g and 307 g and 277 g and 327 g and 368 g (2×)
- End weight [3, 12]: 398 g and 363 g and 298 g and 315 g and 357 g and 346 g and 392 g and 405 g and 374 g and 440 g
- End weight [3, 13]: 429 g and 380 g and 389 g and 393 g and 390 g and 353 g and 366 g and 418 g and 360 g and 425 g
- effect on tactile allodynia of only 1 day of treatment (paired Student's t) (diabetic rats [4]; [15]): significant, albeit partial
- treatment duration to full correction of tactile allodynia (diabetic rats [4]; [8]): 3 days
- effect on thermal hyperalgesia of only 1 day of treatment (paired Student's t) (diabetic rats [5]; [15]): significant, albeit partial
- treatment duration to full correction of thermal hyperalgesia (diabetic rats [5]; [8]): 3 days

- nH (Hill coefficient) [7]: 1.3
SMILES: COc1ccc2c(c1OCc1ccccc1)C[C@@H](C(=O)O)N(C(=O)C(c1ccccc1)c1ccccc1)C2 [Compound 1, S-2-(diphenylacetyl)-5-benzyloxy-6-methoxy-1,2,3,4-tetrahydroisoquinoline-3-carboxylic acid]
- sciatic motor NCV compared with nondiabetic control group (one way ANOVA, Bonferroni test) (diabetic rats [1]; [14]): not significantly different
- reversal of the diabetic deficit, sciatic motor NCV (diabetic rats [1]; 1.048 mg/kg daily by gavage for 2 weeks, vs nondiabetic and diabetic reference groups): 92.6±5.4%
- Flags (IC50 determination) [6]: N.C. (Not calculable. IC50 value is not calculable because of less than 25% inhibition at the highest tested concentration.)
